Data published in patent publication US20100151104A1, “Preservative System For Beverages Based On Combinations Of Trans-Cinnamic Acid, Lauric Arginate, And Dimethyl Dicarbonate” (priority 2008, published 2010).

Assays:
Assay type in all cases: cell-based
[1] = tested on: Brettanomyces bruxellensus; assay: Growth in 10% apple juice beverage with combinations of LAE & cinnamic acid; log (QA/Qa+QB/Qb) calculation; conditions: for amount of growth (normalized) to control: Cinnamic Acid 0 ppm
Source text: (§1) Trans-cinnamic acid and lauric arginate were combined in the following beverage formulation: [table] […] The analysis of the interaction between lauric arginate and cinnamic acid can be refined through use of a mathematical method developed by Voorspuij and Nass (Arch. Int. pharmacodyn. 59:211 1957) (generally accepted among those practiced in the art.) Herein, the interactions between two active substances can be explored. First the quantity (Qa=Molar Cone) of compound A required for an end point (concentration required to stabilize product for 16 weeks) is established. Similarly, the quantity (Qb =Molar cone) of substance B required to establish the same endpoint is established. Thereafter, mixtures of A & B, in quantities QA & Qs are established that also define endpoints. […] If the sum of the ratios for a mixture of A & Bare=1, then the interaction is considered additive. […] Calculation of log (QA/Qa+QB/Qb) for LAE+trans Cinnamic Acid vs Brettanomyces bruzellensus

Brettanomyces nardensis = assay: as above; conditions: for amount of growth (normalized) to control: Cinnamic Acid 0 ppm
Source text: as §1, with “bruzellensus” left out

Saccharomyces cerevsiae = assay: as above; conditions: for amount of growth (normalized) to control: Cinnamic Acid 0 ppm
Source text: as §1, with “[table] • Values reflect amount of growth (normalized) to control (0 ppm LAE & 0 ppm Cinnamic acid) for each pH tested.” for “[table]”, “Saccharomyces […]” for “Brettanomyces bruzellensus”

[2] = tested on: seven bio-indicator strains (Zygosaccharomyce baili, Brettanomyces species, Saccharomyces cerevisiae, Paecilomyces lilacinus, Zygosaccharomyces bisporus …); assay: Example 2: growth/no growth of seven bio-indicator strains in 4% apple juice beverage, 16 weeks; conditions: FIGS. 1a, 1b; stand alone; pH 3.4; 16 weeks at 25° C.
Source text: A single preparation of base beverage was employed to prepare each of five tests and consisted of 4% apple juice, 68 g sucrose/L, 52 g glucose/L, 2 g fructose/L prepared in batch water that was formulated to 90 ppm hardness with calcium chloride and magnesium chloride. […] The total combined quantity of sodium malate and malic acid was near constant, but the ratio of malic acid and malate varied slightly given the presence or absence of lauric arginate or cinnamic acid. Where required, lauric arginate or cinnamic acid was supplemented from separately prepared stock solutions. Each of the five tests employed the same bio-indicator organisms; Growth (+) versus no growth (-) established by visual inspection or spectrophotometrically. […] Y3, Zygosaccharomyce baili, Pepsi isolate 906; C-7UP, Brettanomyces species, Pepsi Isolate; Spore, an ascospore preparation of Saccharomyces cerevisiae 99 a Pepsi Isolate; […], Zygosaccharomyces baili, ATCC 60484; Spores, M7, Paecilomyces lilacinus ATCC 90461; […], Zygosaccharomyces bisporus ATCC 52407; Spores, M4, Talaromvces flavus var. flavus ATCC 10512. Samples were incubated for period of 16 weeks at 25° C. in vessels protective against evaporation.

[3] = stand alone, end point = concentration required to stabilize product for 16 weeks

CCCCCCCCCCCC(=O)N[C@@H](CCCNC(=N)N)C(=O)OCC.Cl [LAE, ethyl-N-lauroyl-L-argniate hydrochloride]
amount of growth (normalized) to control ([1]; pH 3.0, LAE 2.5 ppm): 97%
amount of growth (normalized) to control ([1]; pH 3.0, LAE 5 ppm): 101%
amount of growth (normalized) to control ([1]; pH 3.0, LAE 7.5 ppm): 96%
amount of growth (normalized) to control ([1]; pH 3.0, LAE 10 ppm): 102%
amount of growth (normalized) to control ([1]; pH 3.0, LAE 15 ppm): 94%
amount of growth (normalized) to control ([1]; pH 3.5, LAE 2.5 ppm): 96%
amount of growth (normalized) to control ([1]; pH 3.5, LAE 5 ppm): 106%
amount of growth (normalized) to control ([1]; pH 3.5, LAE 7.5 ppm): 110%
amount of growth (normalized) to control ([1]; pH 3.5, LAE 10 ppm): 114%
amount of growth (normalized) to control ([1]; pH 3.5, LAE 15 ppm): 118%
amount of growth (normalized) to control ([1]; pH 4.0, LAE 2.5 ppm): 115%
amount of growth (normalized) to control ([1]; pH 4.0, LAE 5 ppm): 125%
amount of growth (normalized) to control ([1]; pH 4.0, LAE 7.5 ppm): 124%
amount of growth (normalized) to control ([1]; pH 4.0, LAE 10 ppm): 124%
amount of growth (normalized) to control ([1]; pH 4.0, LAE 15 ppm): 131%
QLAE* (quantity of LAE alone required for the end point) [1, 3]: QLAE* 30
QA/Qa + QB/Qb (Brettanomyces nardensis; QLAE 15, QCA 0): 1.00
QLAE/QLAE* (Brettanomyces nardensis; QLAE 15, QCA 0): 1.00
QNaB/QNAB* (Brettanomyces nardensis; QLAE 15, QCA 0): 0.00
log (QA/Qa + QB/Qb) (Brettanomyces nardensis; QLAE 15, QCA 0): 0.0000
amount of growth (normalized) to control (Brettanomyces nardensis; pH 3.0, LAE 2.5 ppm): 89%
amount of growth (normalized) to control (Brettanomyces nardensis; pH 3.0, LAE 5 ppm): 116%
amount of growth (normalized) to control (Brettanomyces nardensis; pH 3.0, LAE 7.5 ppm): 90%
amount of growth (normalized) to control (Brettanomyces nardensis; pH 3.0, LAE 10 ppm): 99%
amount of growth (normalized) to control (Brettanomyces nardensis; pH 3.0, LAE 15 ppm): 0%
amount of growth (normalized) to control (Brettanomyces nardensis; pH 3.5, LAE 2.5 ppm): 112%
amount of growth (normalized) to control (Brettanomyces nardensis; pH 3.5, LAE 5 ppm): 86%
amount of growth (normalized) to control (Brettanomyces nardensis; pH 3.5, LAE 7.5 ppm): 81%
amount of growth (normalized) to control (Brettanomyces nardensis; pH 3.5, LAE 10 ppm): 57%
amount of growth (normalized) to control (Brettanomyces nardensis; pH 3.5, LAE 15 ppm): 0%
amount of growth (normalized) to control (Brettanomyces nardensis; pH 4.0, LAE 2.5 ppm): 109%
amount of growth (normalized) to control (Brettanomyces nardensis; pH 4.0, LAE 5 ppm): 104%
amount of growth (normalized) to control (Brettanomyces nardensis; pH 4.0, LAE 7.5 ppm): 97%
amount of growth (normalized) to control (Brettanomyces nardensis; pH 4.0, LAE 10 ppm): 0%
amount of growth (normalized) to control (Brettanomyces nardensis; pH 4.0, LAE 15 ppm): 0%
QLAE* (quantity of LAE alone required for the end point) (Brettanomyces nardensis; [3]): QLAE* 15
QA/Qa + QB/Qb (Saccharomyces cerevsiae; QLAE 32, QCA 0): 1.00
QLAE/QLAE* (Saccharomyces cerevsiae; QLAE 32, QCA 0): 1.00
QNaB/QNAB* (Saccharomyces cerevsiae; QLAE 32, QCA 0): 0.00
log (QA/Qa + QB/Qb) (Saccharomyces cerevsiae; QLAE 32, QCA 0): 0.0000
amount of growth (normalized) to control (Saccharomyces cerevsiae; pH 3.0, LAE 2.5 ppm): 97%
amount of growth (normalized) to control (Saccharomyces cerevsiae; pH 3.0, LAE 5 ppm): 97%
amount of growth (normalized) to control (Saccharomyces cerevsiae; pH 3.0, LAE 7.5 ppm): 86%
amount of growth (normalized) to control (Saccharomyces cerevsiae; pH 3.0, LAE 10 ppm): 94%
amount of growth (normalized) to control (Saccharomyces cerevsiae; pH 3.0, LAE 15 ppm): 42%
amount of growth (normalized) to control (Saccharomyces cerevsiae; pH 3.5, LAE 2.5 ppm): 103%
amount of growth (normalized) to control (Saccharomyces cerevsiae; pH 3.5, LAE 5 ppm): 104%
amount of growth (normalized) to control (Saccharomyces cerevsiae; pH 3.5, LAE 7.5 ppm): 93%
amount of growth (normalized) to control (Saccharomyces cerevsiae; pH 3.5, LAE 10 ppm): 105%
amount of growth (normalized) to control (Saccharomyces cerevsiae; pH 3.5, LAE 15 ppm): 57%
amount of growth (normalized) to control (Saccharomyces cerevsiae; pH 4.0, LAE 2.5 ppm): 101%
amount of growth (normalized) to control (Saccharomyces cerevsiae; pH 4.0, LAE 5 ppm): 96%
amount of growth (normalized) to control (Saccharomyces cerevsiae; pH 4.0, LAE 7.5 ppm): 91%
amount of growth (normalized) to control (Saccharomyces cerevsiae; pH 4.0, LAE 10 ppm): 90%
amount of growth (normalized) to control (Saccharomyces cerevsiae; pH 4.0, LAE 15 ppm): 79%
QLAE* (quantity of LAE alone required for the end point) (Saccharomyces cerevsiae; [3]): QLAE* 32
concentration required to inhibit all seven bio-indicator strains [2]: 0.16 mM
